Measured values: PubChem BioAssay AID248 (DTP/NCI, 2004)
Several values for one entry are separate records, joined by “and”; a condition that tells them apart may be missing. Equal entries are not always repeated. Inconclusive results and toxic doses are left out. Rule as the data show it: active = T/C of 150% or more; inactive = T/C below 125%.

Test system: L1210 leukemia ip in BDF1 mice, survival T/C
Assay: NCI In Vivo Anticancer Drug Screen. Data for tumor model L1210 Leukemia (intraperitoneal) in B6D2F1 (BDF1) mice
Settings: endpoint: mean survival time, higher = longer survival
Outline: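 Read-out is survival time, reported as the treated-group measurement over the vehicle-control measurement.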

[1] = dose: 100.0 mg/kg/injection, schedule: Q01DX009 (ip), vehicle: saline
[2] = dose: 100.0 mg/kg/injection, schedule: Q04DX003 (ip), vehicle: saline
[3] = dose: 200.0 mg/kg/injection, schedule: Q01DX009 (ip), vehicle: saline
[4] = dose: 200.0 mg/kg/injection, schedule: Q04DX003 (ip), vehicle: saline
[5] = dose: 400.0 mg/kg/injection, schedule: Q01DX009 (ip), vehicle: saline
[6] = dose: 400.0 mg/kg/injection, schedule: Q04DX003 (ip), vehicle: saline
[7] = dose: 100.0 mg/kg/injection, schedule: Q04DX003 (ip), vehicle: saline with Tween-80
[8] = dose: 200.0 mg/kg/injection, schedule: Q04DX003 (ip), vehicle: saline with Tween-80
[9] = dose: 400.0 mg/kg/injection, schedule: Q04DX003 (ip), vehicle: saline with Tween-80
[10] = dose: 100.0 mg/kg/injection, schedule: Q01DX009 (ip), vehicle: saline with Tween-80
[11] = dose: 200.0 mg/kg/injection, schedule: Q01DX009 (ip), vehicle: saline with Tween-80
[12] = dose: 400.0 mg/kg/injection, schedule: Q01DX009 (ip), vehicle: saline with Tween-80
[13] = dose: 100.0 mg/kg/injection, schedule: Q04DX002 (ip), vehicle: saline
[14] = dose: 200.0 mg/kg/injection, schedule: Q04DX002 (ip), vehicle: saline
[15] = dose: 400.0 mg/kg/injection, schedule: Q04DX002 (ip), vehicle: saline
[16] = dose: 100.0 mg/kg/injection, schedule: Q01DX001 (ip), vehicle: saline
[17] = dose: 200.0 mg/kg/injection, schedule: Q01DX001 (ip), vehicle: saline
[18] = dose: 400.0 mg/kg/injection, schedule: Q01DX001 (ip), vehicle: saline

Measured: T/C

NCC(=O)NC(CO)C(=O)O (configuration not stated)
inactive: [1] 106 % of control | [2] 110 % of control | [3] 101 % of control | [4] 103 % of control | [5] 95 % of control | [6] 100 % of control

CCc1oc(N)nc1-c1ccccc1
inactive: [7] 105 % of control | [8] 101 % of control | [9] 97 % of control

Cc1ccc(S(=O)(=O)OCC(O)C(O)C(O)C(O)C=O)cc1 (configuration not stated) (tested in a mixture with another compound)
inactive: [7] 102 % of control | [8] 94 % of control | [9] 94 % of control

Nc1ccc(S(=O)(=O)Nc2ccc([N+](=O)[O-])cc2)cc1
inactive: dose: 25.0 mg/kg/injection, schedule: Q01DX009 (ip), vehicle: saline with Tween-80 98 % of control | dose: 50.0 mg/kg/injection, schedule: Q01DX009 (ip), vehicle: saline with Tween-80 93 % of control | [10] 98 % of control | [11] 110 % of control | [12] 100 % of control

c1cc2c(cc1CNC1CCCCC1)OCO2
inactive: dose: 75.0 mg/kg/injection, schedule: Q01DX001 (ip), vehicle: saline 100 % of control

NC(=O)C(N)CO (configuration not stated)
inactive: [13] 96 % of control | [14] 104 % of control | [15] 111 % of control

CC(C)c1cc(O)ccc1N(C)C (tested in a mixture with another compound)
inactive: dose: 3.2 micrograms/kg/injection, schedule: Q01DX009 (ip), vehicle: saline 97 % of control | dose: 8.0 micrograms/kg/injection, schedule: Q01DX009 (ip), vehicle: saline 90 % of control | dose: 16.0 micrograms/kg/injection, schedule: Q01DX009 (ip), vehicle: saline 87 % of control | dose: 32.0 micrograms/kg/injection, schedule: Q01DX009 (ip), vehicle: saline 90 % of control

COC1C(C(=O)O)=CC=CC1OC(C)=O (configuration not stated)
inactive: [16] 90 % of control | [17] 102 % of control | [18] 104 % of control

CCCCOCC(O)CNCCN (configuration not stated)
inactive: [13] 108 % of control | [14] 90 % of control | [15] 104 % of control

CCOc1nc(S(=O)(=O)CC)ncc1C
inactive: [10] 109 % of control | [7] 105 % of control | [11] 104 % of control | [8] 100 % of control | [12] 87 % of control | [9] 103 % of control

CNC(C)Cc1ccccc1 (configuration not stated)
inactive: dose: 1.87 mg/kg/injection, schedule: Q04DX003 (ip), vehicle: saline 103 % of control and 116 % of control | dose: 3.75 mg/kg/injection, schedule: Q01DX009 (ip), vehicle: saline 95 % of control | dose: 3.75 mg/kg/injection, schedule: Q04DX003 (ip), vehicle: saline 106 % of control and 116 % of control | dose: 7.5 mg/kg/injection, schedule: Q01DX009 (ip), vehicle: saline 103 % of control and 98 % of control | dose: 7.5 mg/kg/injection, schedule: Q04DX003 (ip), vehicle: saline 108 % of control and 97 % of control | dose: 15.0 mg/kg/injection, schedule: Q01DX009 (ip), vehicle: saline 100 % of control and 96 % of control | dose: 15.0 mg/kg/injection, schedule: Q04DX003 (ip), vehicle: saline 95 % of control and 111 % of control | dose: 30.0 mg/kg/injection, schedule: Q01DX009 (ip), vehicle: saline 109 % of control and 112 % of control | dose: 30.0 mg/kg/injection, schedule: Q04DX003 (ip), vehicle: saline 92 % of control and 111 % of control | dose: 60.0 mg/kg/injection, schedule: Q01DX009 (ip), vehicle: saline 107 % of control and 108 % of control | dose: 60.0 mg/kg/injection, schedule: Q04DX003 (ip), vehicle: saline 95 % of control

O=C(COc1ccccc1)NCc1ccccc1
inactive: [2] 94 % of control | [4] 92 % of control | [6] 92 % of control

COc1cc(CCC(=O)O)cc(/C=N/NC(N)=O)c1O
inactive: [16] 101 % of control | [17] 89 % of control | [18] 95 % of control

CCC(C)(CC(=O)O)CC(=O)O
inactive: [1] 107 % of control | [2] 93 % of control | [3] 93 % of control | [4] 90 % of control | [5] 96 % of control | [6] 92 % of control

O=[N+]([O-])c1ccc2c(c1)Cc1c-2cc(I)c(O)c1I
inactive: dose: 100.0 mg/kg/injection, schedule: Q01DX001 (ip), vehicle: carboxymethylcellulose (CMC) 96 % of control | dose: 200.0 mg/kg/injection, schedule: Q01DX001 (ip), vehicle: carboxymethylcellulose (CMC) 98 % of control | dose: 400.0 mg/kg/injection, schedule: Q01DX001 (ip), vehicle: carboxymethylcellulose (CMC) 98 % of control

NNCc1cc(Cl)c2cccnc2c1O
inactive: dose: 100.0 mg/kg/injection, schedule: Q04DX002 (ip), vehicle: Klucel (hydroxypropylcellulose) (HPC) 105 % of control | dose: 200.0 mg/kg/injection, schedule: Q04DX002 (ip), vehicle: Klucel (hydroxypropylcellulose) (HPC) 105 % of control | dose: 400.0 mg/kg/injection, schedule: Q04DX002 (ip), vehicle: Klucel (hydroxypropylcellulose) (HPC) 99 % of control

NC(=O)c1cc(Cl)c(OCc2ccccc2)c(Cl)c1
inactive: dose: 75.0 mg/kg/injection, schedule: Q01DX001 (ip), vehicle: saline with Tween-80 98 % of control | dose: 150.0 mg/kg/injection, schedule: Q01DX001 (ip), vehicle: saline with Tween-80 103 % of control | dose: 300.0 mg/kg/injection, schedule: Q01DX001 (ip), vehicle: saline with Tween-80 98 % of control

Cc1ccc2c(c1)S(=O)(=O)N(C)C(c1ccccc1)=C2
inactive: dose: 100.0 mg/kg/injection, schedule: Q01DX001 (ip), vehicle: steriod suspending solution 96 % of control | dose: 200.0 mg/kg/injection, schedule: Q01DX001 (ip), vehicle: steriod suspending solution 105 % of control | dose: 400.0 mg/kg/injection, schedule: Q01DX001 (ip), vehicle: steriod suspending solution 86 % of control
